Source: article PMC4904262 (ACS Medicinal Chemistry Letters, 2016)

Experiments:
in vitro [1] = conditions: rat, microsomes
aldehyde oxidase [2] = target: T1, aldehyde oxidase (Homo sapiens, UniProt Q06278); conditions: for % of parent compd remaining after 45 min: human, cytosol, 0.75 h, 1 µM
in vitro [3] = conditions: human, microsomes
in vitro [4] = conditions: mouse, microsomes
Caco-2 = conditions: human
[5] = mouse
aldehyde oxidase [6] = target: T1, aldehyde oxidase; assay: in vitro; conditions: cytosol
WNT signaling = assay: cells; conditions: 7dF3, read-out: 7dF3 IC50

T1 sequence (Q06278 whole entry): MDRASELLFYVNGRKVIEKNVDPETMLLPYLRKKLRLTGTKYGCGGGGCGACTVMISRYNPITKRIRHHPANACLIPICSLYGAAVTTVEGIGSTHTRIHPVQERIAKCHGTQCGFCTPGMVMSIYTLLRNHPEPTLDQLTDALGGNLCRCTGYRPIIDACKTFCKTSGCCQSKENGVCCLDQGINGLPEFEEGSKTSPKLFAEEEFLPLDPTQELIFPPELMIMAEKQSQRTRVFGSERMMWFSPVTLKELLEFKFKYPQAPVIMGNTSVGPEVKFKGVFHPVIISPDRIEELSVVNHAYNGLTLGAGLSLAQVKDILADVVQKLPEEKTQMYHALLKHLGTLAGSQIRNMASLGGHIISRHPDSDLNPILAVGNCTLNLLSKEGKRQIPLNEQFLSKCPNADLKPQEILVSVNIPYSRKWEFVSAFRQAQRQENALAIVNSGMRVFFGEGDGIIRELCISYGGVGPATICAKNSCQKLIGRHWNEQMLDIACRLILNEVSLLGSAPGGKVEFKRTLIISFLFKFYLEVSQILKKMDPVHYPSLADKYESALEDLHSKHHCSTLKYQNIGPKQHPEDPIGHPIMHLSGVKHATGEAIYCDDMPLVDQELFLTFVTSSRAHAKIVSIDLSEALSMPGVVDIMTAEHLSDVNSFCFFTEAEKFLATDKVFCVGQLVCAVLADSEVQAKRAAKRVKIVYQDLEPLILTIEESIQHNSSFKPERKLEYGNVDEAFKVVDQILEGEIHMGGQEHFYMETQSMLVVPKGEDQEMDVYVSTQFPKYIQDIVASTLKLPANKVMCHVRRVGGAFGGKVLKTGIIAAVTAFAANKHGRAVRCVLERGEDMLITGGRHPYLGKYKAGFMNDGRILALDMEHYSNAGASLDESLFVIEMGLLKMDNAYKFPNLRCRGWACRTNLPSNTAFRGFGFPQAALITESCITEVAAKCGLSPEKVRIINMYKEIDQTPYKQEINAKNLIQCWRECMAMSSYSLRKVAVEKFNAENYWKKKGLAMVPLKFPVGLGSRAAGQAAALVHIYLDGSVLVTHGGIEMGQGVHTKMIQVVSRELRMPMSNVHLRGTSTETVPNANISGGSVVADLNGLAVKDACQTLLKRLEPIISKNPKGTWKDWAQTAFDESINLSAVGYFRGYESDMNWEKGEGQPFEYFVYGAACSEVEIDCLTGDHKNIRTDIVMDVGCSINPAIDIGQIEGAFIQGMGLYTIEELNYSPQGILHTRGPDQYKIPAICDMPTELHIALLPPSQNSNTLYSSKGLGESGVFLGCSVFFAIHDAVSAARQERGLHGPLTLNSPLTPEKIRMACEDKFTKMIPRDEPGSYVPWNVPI

Row | Structure (SMILES) | microsomal CLint at 1 µM (in vitro [1]) [µL/min/mg] | microsomal CLint at 1 µM (in vitro [3]) [µL/min/mg] | microsomal CLint at 1 µM (in vitro [4]) [µL/min/mg] | % of parent compd remaining after 45 min (aldehyde oxidase [2]) [%] | also measured
1 | Cn1cc(-c2ccc(-c3cncc4ccc(N5CCOC5=O)cc34)cc2)cn1 [Compound 34] | 102 | 66 | 380 |  | AO substrate (Enzyme assay) (aldehyde oxidase [2]): Yes
2 | Cn1cc(-c2ccc(-c3cncc4ccc(C(=O)N5CCNCC5)nc34)cc2)cn1 [Compound 17] | 525 | 36 | 15 |  | Vss ([5]; Balb/C, in vivo): 5.8 L/kg; in vivo clearance [5]: exceeded liver blood flow
3 | Cn1cc(-c2ccc(-c3cnc(N)c4ccc(C(=O)N5CC(C)(F)C5)cc34)cc2)cn1 [Compound 62] | 28 | 76 | 43 |  | Caco-2 ER (Caco-2): 3.4; Caco-2 PappA-B (Caco-2): 25.8 × 10^–6 cm/s
4 | Cn1cc(-c2ccc(-c3cncc4ccc(C(=O)N5CC(F)(F)C5)nc34)cc2)cn1 [Compound 14] | 317 | 111 | 160 |  | 
5 | CC(=O)Nc1ccc2cncc(-c3ccc(-c4cnn(C)c4)cc3)c2c1 [Compound 31] | 90 | 26 | 200 |  | AO substrate (Enzyme assay) (aldehyde oxidase [2]): Yes
6 | Cn1cc(-c2ccc(-c3cnc(N)c4ccc(C(=O)NC5CC5)cc34)cc2)cn1 [Compound 64] | 22 | 16 | 39 |  | Caco-2 ER (Caco-2): 13.2; Caco-2 PappA-B (Caco-2): 32.5 × 10^–6 cm/s; AO substrate (Enzyme assay) (aldehyde oxidase [2]): No
7 | COC1CN(C(=O)c2ccc3cncc(-c4ccc(-c5cnn(CC(C)(C)O)c5)cc4)c3c2)C1 [Compound 41] |  |  |  | 0 | IC50 (WNT signaling): 13.2 ± 15.2 nM
8 | CNC(=O)c1ccc2cncc(-c3ccc4cnn(C)c4c3)c2n1 [Compound 6] | 178 | 32 | 333 |  | 
9 | Cn1cc(-c2ccc(-c3cncc4ccc(-c5ccn(C)n5)nc34)cc2)cn1 [Compound 24] | 212 | 45 | 299 |  | 
10 | Cn1cc(-c2ccc(-c3cncc4ccc(-c5ncco5)cc34)cc2)cn1 [Compound 32] | 96 | 81 | 129 | 3 | 
11 | Cn1cc(-c2ccc(-c3cncc4ccc(N5CCNC5=O)nc34)cc2)cn1 [Compound 20] | 323 | 64 | 246 |  | 
12 | Cn1cc(-c2ccc(-c3cncc4ccc(C(=O)N5CCC5)nc34)cc2)cn1 [Compound 12] | 85 | 38 | 143 |  | 
13 | COC1CN(C(=O)c2ccc3cncc(-c4ccc(-c5cnn(C)c5)cc4)c3c2)C1 [Compound 29] | 337 | 56 | 403 | 1 | AO substrate (Enzyme assay) (aldehyde oxidase [2]): Yes
14 | Cn1cc(-c2ccc(-c3cnc(N)c4ccc(C(=O)N5CCOCC5)nc34)cc2)cn1 [Compound 50] |  |  |  |  | Caco-2 ER (Caco-2): 9; Caco-2 PappA-B (Caco-2): 34.0 × 10^–6 cm/s
15 | COC1CN(C(=O)c2ccc3cncc(-c4ccc(-c5cnn(CC(C)(C)O)c5)cc4)c3n2)C1 [Compound 38] |  |  |  | 0 | IC50 (WNT signaling): 2.8 ± 0.7 nM
16 | CNC(=O)c1ccc2cncc(-c3ccc(-c4cnn(C)c4)cc3)c2n1 [Compound 4] |  | 40 | 172 |  | microsomal CLint (in vitro [1]): > 1000 µL/min/mg
17 | Cn1cc(-c2ccc(-c3cncc4ccc(C(=O)N5CCCC5)nc34)cc2)cn1 [Compound 15] | 55 | 38 | 321 |  | 
18 | Cn1cc(-c2ccc(-c3cnc(N)c4ccc(C(=O)N5CCC5)cc34)cc2)cn1 [Compound 58] | 11 |  | 23 |  | Caco-2 ER (Caco-2): 5.5; Caco-2 PappA-B (Caco-2): 27.2 × 10^–6 cm/s; microsomal CLint (in vitro [3]): < 10 µL/min/mg
19 | COC1CN(C(=O)c2ccc3cncc(-c4ccc5c(cnn5CC(C)(C)O)c4)c3c2)C1 [Compound 43] |  |  |  | 2 | IC50 (WNT signaling): 921 ± 148 nM
20 | Cn1cc(-c2ccc(-c3cnc(N)c4ccc(C(=O)N5CCCC5)nc34)cc2)cn1 [Compound 56] | 63 | 30 | 81 |  | Caco-2 ER (Caco-2): 5.0; Caco-2 PappA-B (Caco-2): 30 × 10^–6 cm/s
21 | CC(C)(O)Cn1cc(-c2ccc(-c3cncc4ccc(C(N)=O)cc34)cc2)cn1 [Compound 42] |  |  |  | 7 | IC50 (WNT signaling): 0.6 ± 0.2 nM
22 | COC1(C)CN(C(=O)c2ccc3c(N)ncc(-c4ccc(-c5cnn(C)c5)cc4)c3c2)C1 [Compound 60] | 17 | 64 | 26 |  | Caco-2 ER (Caco-2): 7.2; Caco-2 PappA-B (Caco-2): 25.2 × 10^–6 cm/s
23 | Cn1cc(-c2ccc(-c3cnc(N)c4ccc(C(=O)N5CC(F)(F)C5)nc34)cc2)cn1 [Compound 54] | 19 | 25 | 107 |  | Caco-2 ER (Caco-2): 1.8; Caco-2 PappA-B (Caco-2): 23.9 × 10^–6 cm/s
24 | Cn1cc(-c2ccc(-c3cncc4ccc(-c5ccnn5C)nc34)cc2)cn1 [Compound 23] | 761 | 144 | 310 |  | 
25 | CNC(=O)c1ccc2c(N)ncc(-c3ccc4c(c3)CS(=O)(=O)N4)c2n1 [Compound 37] |  |  |  | 100 | IC50 (WNT signaling): 9600 ± 2430 nM
26 | CNC(=O)c1ccc2c(OC)ncc(-c3ccc4c(c3)CS(=O)(=O)N4)c2n1 [Compound 45] |  |  |  |  | IC50 (WNT signaling): > 30000 nM
27 | COC1CN(C(=O)c2ccc3cncc(-c4ccc5nn(CC(C)(C)O)cc5c4)c3c2)C1 [Compound 44] |  |  |  | 0 | IC50 (WNT signaling): 92.7 ± 41.1 nM
28 | COC1CN(C(=O)c2ccc3cncc(-c4ccc5c(cnn5CC(C)(C)O)c4)c3n2)C1 [Compound 39] |  |  |  | 0 | IC50 (WNT signaling): 225 ± 76 nM
29 | COC1CN(C(=O)c2ccc3cncc(-c4ccc5nn(CC(C)(C)O)cc5c4)c3n2)C1 [Compound 40] |  |  |  | 0 | IC50 (WNT signaling): 17.9 ± 5.5 nM

Second part, led by results:

Row | microsomal CLint at 1 µM (in vitro [1]) [µL/min/mg] | microsomal CLint at 1 µM (in vitro [3]) [µL/min/mg] | microsomal CLint at 1 µM (in vitro [4]) [µL/min/mg] | Structure (SMILES) | % of parent compd remaining after 45 min (aldehyde oxidase [2]) [%] | also measured
30 | 307 | 398 | 570 | Cn1cc(-c2ccc(-c3cncc4ccc(-c5nccn5C)cc34)cc2)cn1 [Compound 33] |  | 
31 | 19 | 14 | 66 | Cn1cc(-c2ccc(-c3cnc(N)c4ccc(N5CCOC5=O)cc34)cc2)cn1 [Compound 65] |  | Caco-2 ER (Caco-2): 16.2; Caco-2 PappA-B (Caco-2): 20.6 × 10^–6 cm/s; AO substrate (Enzyme assay) (aldehyde oxidase [2]): No
32 | 699 | 116 | 444 | CNC(=O)c1ccc2cncc(-c3ccc4c(cnn4C)c3)c2n1 [Compound 5] |  | 
33 |  | 335 | 661 | Cn1cc(-c2ccc(-c3cncc4ccc(-c5nccn5C)nc34)cc2)cn1 [Compound 26] |  | microsomal CLint (in vitro [1]): > 1000 µL/min/mg; AO substrate (Enzyme assay) (aldehyde oxidase [2]): Yes; CLint scaled at 1 µM (aldehyde oxidase [6]): > 1000 mL/min/kg
34 |  | 34 | 155 | Cn1cc(-c2ccc(-c3cncc4ccc(C(N)=O)nc34)cc2)cn1 [Compound 9] |  | 
35 | 327 | 35 | 95 | COC1CN(C(=O)c2ccc3cncc(-c4ccc(-c5cnn(C)c5)cc4)c3n2)C1 [Compound 13] | 0 | AO substrate (Enzyme assay) (aldehyde oxidase [2]): Yes
36 | 17 | 123 | 78 | Cn1cc(-c2ccc(-c3cnc(N)c4ccc(C(=O)N5CC(F)(F)C5)cc34)cc2)cn1 [Compound 61] |  | Caco-2 ER (Caco-2): 3.8; Caco-2 PappA-B (Caco-2): 39.7 × 10^–6 cm/s
37 | 98 | 31 | 141 | Cn1cc(-c2ccc(-c3cncc4ccc(C(=O)NC5CC5)cc34)cc2)cn1 [Compound 28] |  | AO substrate (Enzyme assay) (aldehyde oxidase [2]): Yes
38 |  |  | 48 | COC1(C)CN(C(=O)c2ccc3c(N)ncc(-c4ccc(-c5cnn(C)c5)cc4)c3n2)C1 [Compound 53] |  | Caco-2 ER (Caco-2): 5.8; Caco-2 PappA-B (Caco-2): 40.1 × 10^–6 cm/s; microsomal CLint (in vitro [1]): 25 µL/min/mg; microsomal CLint (in vitro [3]): 25 µL/min/mg
39 | 24 | 20 | 125 | Cn1cc(-c2ccc(-c3cnc(N)c4ccc(C(=O)N5CC(C)(F)C5)nc34)cc2)cn1 [Compound 55] |  | Caco-2 ER (Caco-2): 3.4; Caco-2 PappA-B (Caco-2): 27.6 × 10^–6 cm/s
40 | 207 | 470 | 321 | Cn1cc(-c2ccc(-c3cncc4ccc(C(=O)N5CC(F)(F)C5)cc34)cc2)cn1 [Compound 30] | 0 | 
41 | 796 | 48 | 200 | Cn1cc(-c2ccc(-c3cncc4ccc(-c5ncco5)nc34)cc2)cn1 [Compound 25] | 0 | CLint scaled at 1 µM (aldehyde oxidase [6]): 367 mL/min/kg
42 | 23 | 41 | 83 | Cn1cc(-c2ccc(-c3cncc4ccc(C(=O)N5CCOCC5)nc34)cc2)cn1 [Compound 16] |  | 
43 |  | 27 | 275 | CNC(=O)c1ccc2cncc(-c3ccc(-c4cnn(C)c4)cc3)c2c1 [Compound 27] | 0 | 
44 | 38 | 24 | 61 | Cn1cc(-c2ccc(-c3cnc(N)c4ccc(C(=O)N5CCC5)nc34)cc2)cn1 [Compound 52] |  | Caco-2 ER (Caco-2): 5.3; Caco-2 PappA-B (Caco-2): 42.6 × 10^–6 cm/s
